Data set [1] concerns Male Wistar rats (Charles River). The data set can be described thus: Hole-Board Test, head-dipping activity. Format: in vivo. To be noted: Rattus norvegicus, po, 1 h, p.o., one hour before testing, from head-dipping activity, read-out: Minimum effective dose (mg/kg, p.o.). The method, then: The experiment was carried out according to a slightly modified method of File [File, S. E., Wardill, A. G., Psychopharmacologia, 44, 53-59, (1975)]. Male Wistar rats (Charles River) weighing 160-200 g were fasted for 24 hours prior to the experiment. They were treated orally in a volume of 5 ml/kg one hour before testing, a treated group consisted of 12 animals. The test compounds were suspended in 0,4 methylcellulose solution, the control group was treated with methylcellulose. All procedures were carried out in a quiet, air-conditioned laboratory between 9:00 and 13:00 hours at ambient temperature (23°+2° C.). Locomotor and head-dipping activity were measured using automated test chambers (Digiscan, OMNITECH Electronics Inc., Columbus, Ohio). The floor of each box contained 4 equally spaced holes (3.5 cm in diameter) through which rat could pop its head. Interruptions of infrared beams (16 of them is located 1.0 cm below and an other […] above the floor level) were automatically recorded by digiscan analyser and then transmitted to a computer and analysed by OASIS softwer. The hole-board testing involved placing a rat in the center of the floor and allowing it to explore for 5 minutes.
At the end of each trial any boluses were removed and the box was thoroughly wiped. Minimum effective doses of the compounds were calculated from the head-dipping activity values.

The next data set deals with Male Wistar rats. Briefly: Vogel Test (Lick Conflict Test), anxiolytic activity. Format: in vivo. As to conditions: Rattus norvegicus, po, 1 h, p.o., one hour before testing, read-out: Minimum effective dose (mg/kg, p.o.). The method, then: 1. Vogel Test (Lick Conflict Test)
Male Wistar rats of 160 to 180 g body weight were kept free of food and drinking water for 24 and 48 hours, respectively. The test and carrier substances (0.4% methyl-cellulose) were administered orally one hour before testing. Groups consisting of 8 animals were used. The rats within the experimental chamber were provided with drinking water through an inserted tube. After the animals' each twenty lapping for water the device emitted a 1.4 mA intensity electric shock through the drinking tube. During 5 minutes the shocks tolerated by the animals in order to quench their thirst were counted. The effect of treatment was expressed as the % increase of the tolerated shocks. The minimum effective dose (MED) was determined for each test compound (Vogel, J. R., Beer, B., Clody, D. E.: Psycho-pharmacologia (Berl.) 21, 1 /1971/).

The next data set is described as follows: in vivo. To be noted: mouse, NMRI mice, 7 days observation. The procedure:
White mice belonging to the NMRI strain (body weight 20 to 25 g. both male and female) were used, 6 animals for each dose. The test compound was administered orally in a volume of 20 ml/kg, the maximum oral and intraperitoneal doses were 1000 mg/kg and 300 mg/kg, respectively. […] The mice were kept under usual laboratory conditions.

Data set [2] deals with Male rats belonging to the Sprague Dawley strain. The data set can be described thus: Elevated Plus Maze Test on Rat, anxiolytic activity. As to conditions: for minimal effective dose: Rattus norvegicus, po, 1 h, p.o., 60 minutes pretreatment, significant increase of time spent on the open arms, Sprague Dawley rats, read-out: Minimum effective dose (mg/kg, p.o.). Format: in vivo. The method, then: 1.2 Elevated Plus Maze Test on Rat
The test was carried out with the aid of a wooden plus-shaped maze elevated to a height of 50 cm. Two arms (100 cm long and 15 cm wide)--opposite to one another--were enclosed up to a height of 40 cm along their longer sides and at the end. The other two arms were without walls (open arms). The central 15×15 cm part was open. Male rats belonging to the Sprague Dawley strain and weighing 220 to 260 g were used as test animals. After pretreatment lasting 60 minutes the animals were placed into the central part of the maze. During the 5 minutes observation period the following parameters were recorded: […]
time spent on the open arms time spent on the closed arms number of open arm entries number of closed arm entries.
The drug effect was expressed as percent increase of the time spent on the open arms and number of open arm entries. The minimum effective dose which caused a significant increase of the time spent on the open arms was calculated for every substance [Pelow, S., Chopin, P., File, S. E., Briley, M.: J. Neurocsi. Methods 14, 149-167 (1985)].

[3] abbreviates: ip, read-out: LD50 (mg/kg, i.p.).
Setting [4] is: po, read-out: LD50 (mg/kg, p.o.).

Where two headings read alike, the source gives them in different places.

Consider `COc1ccc(C=Cc2nccc3cc(OC)c(OC)cc23)cc1` [Example 21, 6,7-dimethoxy-1-(4-methoxystyryl)-isoquinoline], for which the results for the minimal effective dose (in data set [1]; with Male Wistar rats) were 0.01 mg/kg and 0.03 mg/kg, respectively. Also, the LD50 at 168 h in the data set “in vivo” (setting [3]) was greater than 300 mg/kg; in the data set “in vivo” (setting [4]), greater than 1000 mg/kg.
Turning to `COc1cc2cc(C)nc(C=Cc3ccc([N+](=O)[O-])cc3)c2cc1OC` [Example 4, 3-methyl-6,7-dimethoxy-1-(4-nitrostyryl)-isoquinoline], the minimal effective dose in the data set with Male Wistar rats worked out at 0.01 mg/kg. Besides, the LD50 at 168 h in the data set “in vivo” (setting [3]) is greater than 300 mg/kg; in “in vivo” (setting [4]), greater than 1000 mg/kg.
For the compound `Clc1ccc(C=Cc2nccc3ccccc23)c(Cl)c1` [Example 8, 1-(2,4-dichlorostyryl)-isoquinoline], the LD50 at 168 h in the data set “in vivo” (setting [3]) is greater than 300 mg/kg; in the data set “in vivo” (setting [4]) it was greater than 1000 mg/kg.
In the case of `FC(F)(F)c1ccc(C=Cc2nccc3cc4c(cc23)OCO4)cc1` [Example 3, 6,7-methylenedioxy-1-[(4-trifluoromethyl)-styryl]-isoquinoline], the minimal effective dose in data set [2] stood at 0.1 mg/kg; in data set [1], 0.0001 mg/kg; with Male Wistar rats it was 1e-05 mg/kg. Moreover, in data set [2] (elevated plus maze, relative to diazepam), the “times more effective than diazepam” value turned out to be 25 times. Moreover, the LD50 at 168 h in “in vivo” (setting [3]) was greater than 300 mg/kg; in “in vivo” (setting [4]), greater than 1000 mg/kg.
In the case of `COc1cc2ccnc(C=Cc3ccc(F)cc3)c2cc1OC` [Example 5, 1-(4-fluorostyryl)-6,7-dimethoxyisoquinoline], the minimal effective dose in the data set with Male Wistar rats was determined as 0.0003 mg/kg. The figures for the LD50 at 168 h in the data set “in vivo” (setting [3]) and in the data set “in vivo” (setting [4]) were greater than 300 mg/kg and greater than 1000 mg/kg, respectively.
`Cc1cc2cc3c(cc2c(C=Cc2cccc(Br)c2)n1)OCO3` [Example 19, 1-(3-bromostyryl)-3-methyl-6,7-methylenedioxyisoquinoline]: the LD50 at 168 h is greater than 300 mg/kg in the data set “in vivo” (setting [3]) and greater than 1000 mg/kg in the data set “in vivo” (setting [4]).
For `CN1C(=O)CN=C(c2ccccc2)c2cc(Cl)ccc21` [Diazepam, reference compound], the minimal effective dose amounted to 2.5 mg/kg in data set [2], 0.1 mg/kg in data set [1] and 0.1 mg/kg with Male Wistar rats.
With `COc1ccc(C=Cc2nccc3cc4c(cc23)OCO4)cc1OC` [Example 20, 1-(3,4-dimethoxystyryl)-6,7-methylenedioxyisoquinoline], the LD50 at 168 h in the data set “in vivo” (setting [3]) was greater than 300 mg/kg; in “in vivo” (setting [4]), greater than 1000 mg/kg.
`COc1cc2ccnc(C=Cc3ccc(C(F)(F)F)cc3)c2cc1OC` [Example 6, 6,7-dimethoxy-1-[4-(trifluoromethyl)-styryl]-isoquinoline]: the minimal effective dose worked out at 0.0001 mg/kg in data set [1] and 0.01 mg/kg with Male Wistar rats. Moreover, the values for the LD50 at 168 h in the data set “in vivo” (setting [3]) and in the data set “in vivo” (setting [4]) were greater than 300 mg/kg and greater than 1000 mg/kg, respectively.
For the compound `COc1cc2cc(C)nc(C=Cc3ccc(C#N)cc3)c2c(OC)c1OC` [Example 9, 1-(4-cyanostyryl)-3-methyl-6,7,8-trimethoxyisoquinoline], in the data set on Male Wistar rats, the minimal effective dose came out at 0.01 mg/kg. The figures for the LD50 at 168 h in “in vivo” (setting [3]) and in “in vivo” (setting [4]) were greater than 300 mg/kg and greater than 1000 mg/kg, respectively.
On to `COc1ccc(C=Cc2nccc3cc(OC)c(OC)cc23)cc1OC` [Example 7, 1-(3,4-dimethoxystyryl)-6,7-dimethoxyisoquinoline], for which the LD50 at 168 h in the data set “in vivo” (setting [3]) was greater than 300 mg/kg; in “in vivo” (setting [4]), 1000 mg/kg.
On the same counts, the results for `COc1cc2cc(C)nc(C=Cc3ccc(Cl)cc3)c2cc1OC` [Example 2, 1-(4-chlorostyryl)-3-methyl-6,7-dimethoxyisoquinoline] are greater than 300 mg/kg and greater than 1000 mg/kg.
